In patent US20240024273A1, “TOPICAL ADMINISTRATION OF 2-(DIETHYLAMINO)ETHYL 2-(4-ISOBUTYLPHENYL)PROPRIONATE FOR TREATMENT OF DISEASES” (TECHFIELDS PHARMA CO., LTD., priority 2020, published 2024):

Tested on: Mild to Moderate Osteoarthritis of the Knee
Assay: Phase 2 study: WOMAC difficulty performing daily activities subscale score
Type: in vivo, human
Conditions: for Change of WOMAC Difficulty performing daily activities score from baseline (±SEM) / Percentage of improvement from baseline, WOMAC Difficulty performing daily activities score: all patients taken as active
Text: This is a Phase 2, multicenter, randomized, double blind (within dose), placebo controlled, parallel group, proof of concept, and dose range finding study to evaluate the efficacy, safety, and PK of 2-(diethylamino)ethyl 2-(4-isobutylphenyl)propionate hydrochloride spray in adult subjects with clinically symptomatic mild to moderate OA of the knee. For subjects with bilateral knee pain, both knees will be treated, but the most symptomatic knee (i.e., the most painful knee as measured by the Western Ontario and McMaster University Osteoarthritis Index [WOMAC® 3.1] pain subscale score at Screening) will be designated as the target knee for efficacy analyses. For subjects with unilateral knee pain, only the symptomatic (target) knee will be treated.
After a Screening Period of up to 3 weeks and radiographic evaluation of the target knee joint space, a subject will be randomly assigned to 1 of 3 treatment groups in a 1:1:1 ratio with a 2:1 ratio of active:placebo within each treatment group (ie, 2 subjects to active treatment and 1 subject to placebo): • Group A: 8.75 mg 2-(diethylamino)ethyl 2-(4-isobutylphenyl)propionate/knee (2 sprays/knee, one spray to the medial surface and one spray to the lateral surface of the knee), twice daily (BID, approximately every 12 hours; n=50) or placebo (2 sprays/knee), BID (approximately every 12 hours; n=25) for a total of 4 sprays per knee per day; • Group B: 17.5 mg 2-(diethylamino)ethyl 2-(4-isobutylphenyl)propionate/knee (4 sprays/knee, one spray to the medial surface and one spray to the lateral surface of the knee, and one spray to front and one spray to the back of the knee), BID (approximately every 12 hours; n=50) or placebo (4 sprays/knee), BID (approximately every 12 hours; n=25) for a total of 8 sprays per knee per day; • Group C: 35 mg 2-(diethylamino)ethyl 2-(4-isobutylphenyl)propionate/knee (8 sprays/knee, each spray is to be applied to a different non-overlapping area around the knee, and the areas are to be uniformly distributed around the knee), BID (approximately every 12 hours; n=50) or placebo (8 sprays/knee), BID (approximately every 12 hours; n=25) for a total of 16 sprays per knee per day.
The VAS version of the WOMAC will be used for the Primary and Secondary Efficacy Endpoints. Efficacy endpoints will be assessed at Screening and Baseline (Day 1) and at the Week 2, Week 4, Week 8, and Week 12/EOS visits.
3.9.2. Secondary Efficacy Endpoints: • 1. Change from Baseline in the WOMAC (VAS) pain subscale score for the target knee at 2, 4, and 8 weeks of treatment; • 2. Change from Baseline in the WOMAC (VAS) stiffness subscale scores for the target knee and WOMAC (VAS) functional ability subscale scores at 2, 4, 8, and 12 weeks of treatment; • 3. Change from Baseline in the overall WOMAC (VAS) score at 2, 4, 8, and 12 weeks of treatment.
The Secondary Efficacy Endpoints, change from Baseline in the WOMAC subscale scores for pain, stiffness, and functional ability, and overall WOMAC score at 2, 4, 8, and 12 weeks of treatment, will be analyzed using the same methods as for the Primary Efficacy Endpoint.
To determine this, we assumed that all patients received 2-(diethylamino)ethyl 2-(4-isobutylphenyl)propionate, active drug treatment (i.e. all patients who received 2-(diethylamino)ethyl 2-(4-isobutylphenyl)propionate or placebo treatment for 12 weeks or mixed up treatment during the 12-week treatment, as 2-(diethylamino)ethyl 2-(4-isobutylphenyl)propionate-treated). Based on this assumption, that is, to treat this trial as an open-label study and that all patients received active treatment, we conducted efficacy analysis using top-line efficacy datasets prepared by CRO and the re-analysis results are presented in the following tables (Tables 29-47). […] (William G. Bensen, Justus J. Fiechtner, James 1. McMillen, et. al. Treatment of Osteoarthritis with Celecoxib. Mayo Clin Proc, November 1999. Vol 74, 1095-1105.)

[1] = 8.75 mg/knee (BID), Follow up (week 13, day 91)
[2] = 8.75 mg/knee (BID), Week 2 (day 14)
[3] = 8.75 mg/knee (BID), Week 4 (day 28)
[4] = 8.75 mg/knee (BID), Week 8 (day 56)
[5] = 8.75 mg/knee (BID), Week 12 (day 84)
[6] = 17.5 mg/knee (BID), Follow up (week 13, day 91)
[7] = 17.5 mg/knee (BID), Week 2 (day 14)
[8] = 17.5 mg/knee (BID), Week 4 (day 28)
[9] = 17.5 mg/knee (BID), Week 8 (day 56)
[10] = 17.5 mg/knee (BID), Week 12 (day 84)
[11] = 35 mg/knee (BID), Follow up (week 13, day 91)
[12] = 35 mg/knee (BID), Week 2 (day 14)
[13] = 35 mg/knee (BID), Week 4 (day 28)

For `CCN(CC)CCOC(=O)C(C)c1ccc(CC(C)C)cc1` (stereo not shown) [2-(diethylamino)ethyl 2-(4-isobutylphenyl)propionate], the “Change of WOMAC Difficulty performing daily activities score from baseline (±SEM), adjusted by […] of the Testing Drug Amount” value [1] was −34.6(±5.8) mm, the “Percentage of improvement from baseline, WOMAC Difficulty performing daily activities score, adjusted by […] of the Testing Drug Amount” value (“Percentage … of the Testing Drug Amount” below) [1] was −57.6% and the “Change of WOMAC Difficulty performing daily activities score from baseline (±SEM)” value [1] was −20.3(±3.4) mm. For the same compound, the “Percentage of improvement from baseline, WOMAC Difficulty performing daily activities score” value [1] was −33.6%, the “Change of WOMAC Difficulty performing daily activities score from baseline (±SEM), adjusted by […] of the Testing Drug Amount” value [2] was −18.2(±4.4) mm and the “Percentage … of the Testing Drug Amount” value [2] was −30.0%. The “Change of WOMAC Difficulty performing daily activities score from baseline (±SEM)” value [2] was −10.6(±2.6) mm, the “Percentage of improvement from baseline, WOMAC Difficulty performing daily activities score” value [2] was −17.5% and the “Change of WOMAC Difficulty performing daily activities score from baseline (±SEM), adjusted by […] of the Testing Drug Amount” value [3] was −28.1(±5.1) mm. The “Percentage … of the Testing Drug Amount” value [3] was −46.7%, the “Change of WOMAC Difficulty performing daily activities score from baseline (±SEM)” value [3] was −16.4(±3.0) mm and the “Percentage of improvement from baseline, WOMAC Difficulty performing daily activities score” value [3] was −27.2%. The “Change of WOMAC Difficulty performing daily activities score from baseline (±SEM), adjusted by […] of the Testing Drug Amount” value [4] was −33.1(±5.3) mm, the “Percentage … of the Testing Drug Amount” value [4] was −54.9% and the “Change of WOMAC Difficulty performing daily activities score from baseline (±SEM)” value [4] was −19.3(±3.1) mm. For the same compound, the “Percentage of improvement from baseline, WOMAC Difficulty performing daily activities score” value [4] was −32.0%, the “Change of WOMAC Difficulty performing daily activities score from baseline (±SEM), adjusted by […] of the Testing Drug Amount” value [5] was −35.3(±5.8) mm and the “Percentage … of the Testing Drug Amount” value [5] was −58.5%. For the same compound, the “Change of WOMAC Difficulty performing daily activities score from baseline (±SEM)” value [5] was −20.6(±3.4) mm, the “Percentage of improvement from baseline, WOMAC Difficulty performing daily activities score” value [5] was −34.1% and the “Change of WOMAC Difficulty performing daily activities score from baseline (±SEM), adjusted by […] of the Testing Drug Amount” value [6] was −39.6(±5.5) mm. The “Percentage … of the Testing Drug Amount” value [6] was −62.4%, the “Change of WOMAC Difficulty performing daily activities score from baseline (±SEM)” value [6] was −23.1(±3.2) mm and the “Percentage of improvement from baseline, WOMAC Difficulty performing daily activities score” value [6] was −36.4%. For the same compound, the “Change of WOMAC Difficulty performing daily activities score from baseline (±SEM), adjusted by […] of the Testing Drug Amount” value [7] was −26.2(±4.1) mm, the “Percentage … of the Testing Drug Amount” value [7] was −41.3% and the “Change of WOMAC Difficulty performing daily activities score from baseline (±SEM)” value [7] was −15.3(±2.4) mm. The “Percentage of improvement from baseline, WOMAC Difficulty performing daily activities score” value [7] was −24.1%, the “Change of WOMAC Difficulty performing daily activities score from baseline (±SEM), adjusted by […] of the Testing Drug Amount” value [8] was −36.2(±4.8) mm and the “Percentage … of the Testing Drug Amount” value [8] was −57.1%. The “Percentage of improvement from baseline, WOMAC Difficulty performing daily activities score” value [8] was −33.3%, the “Change of WOMAC Difficulty performing daily activities score from baseline (±SEM), adjusted by […] of the Testing Drug Amount” value [9] was −41.3(±5.1) mm and the “Percentage … of the Testing Drug Amount” value [9] was −65.2%. The “Change of WOMAC Difficulty performing daily activities score from baseline (±SEM)” value [9] was −24.1(±3.0) mm, the “Percentage of improvement from baseline, WOMAC Difficulty performing daily activities score” value [9] was −38.0% and the “Change of WOMAC Difficulty performing daily activities score from baseline (±SEM), adjusted by […] of the Testing Drug Amount” value [10] was −46.1(±5.5) mm. The “Percentage … of the Testing Drug Amount” value [10] was −72.7%, the “Change of WOMAC Difficulty performing daily activities score from baseline (±SEM)” value [10] was −26.9(±3.2) mm and the “Percentage of improvement from baseline, WOMAC Difficulty performing daily activities score” value [10] was −42.4%. For the same compound, the “Change of WOMAC Difficulty performing daily activities score from baseline (±SEM), adjusted by […] of the Testing Drug Amount” value [11] was −35.0(±4.5) mm, the “Percentage … of the Testing Drug Amount” value [11] was −60.9% and the “Change of WOMAC Difficulty performing daily activities score from baseline (±SEM)” value [11] was −20.4(±2.6) mm. For the same compound, the “Percentage of improvement from baseline, WOMAC Difficulty performing daily activities score” value [11] was −35.5%, the “Change of WOMAC Difficulty performing daily activities score from baseline (±SEM), adjusted by […] of the Testing Drug Amount” value [12] was −16.1(±3.3) mm and the “Percentage … of the Testing Drug Amount” value [12] was −28.1%. For the same compound, the “Change of WOMAC Difficulty performing daily activities score from baseline (±SEM)” value [12] was −9.4(±1.9) mm, the “Percentage of improvement from baseline, WOMAC Difficulty performing daily activities score” value [12] was −16.4% and the “Change of WOMAC Difficulty performing daily activities score from baseline (±SEM), adjusted by […] of the Testing Drug Amount” value [13] was −23.0(±3.9) mm. The “Percentage … of the Testing Drug Amount” value [13] was −40.0%, the “Change of WOMAC Difficulty performing daily activities score from baseline (±SEM)” value [13] was −13.4(±2.3) mm and the “Percentage of improvement from baseline, WOMAC Difficulty performing daily activities score” value [13] was −23.3%. The “Change of WOMAC Difficulty performing daily activities score from baseline (±SEM), adjusted by […] of the Testing Drug Amount” value (35 mg/knee (BID), Week 8 (day 56)) was −31.6(±4.5) mm.
